Experimental data reported in ChEMBL document CHEMBL2177102, “Modulation of DNA repair by pharmacological inhibitors of the PIKK protein kinase family” (Bioorg Med Chem Lett, 2012).
pEC50, pIC50, pKi: −log10 of the molar value. Where “and” joins values, the source holds several entries; their conditions need not be identical. Equal entries are not always repeated.

Experiments:
[1] = molecular target: DNA-dependent protein kinase catalytic subunit (Mus musculus, UniProt P97313); experiment: Inhibition of DNA-PK in C57BL6 mouse endothelial cells; format: cell-based, Endothelial cell
[2] = molecular target: T1, DNA-dependent protein kinase catalytic subunit (Homo sapiens, UniProt P78527); experiment: Inhibition of DNA-PK assessed as inhibition of p53 peptide phosphorylation
T1 sequence (P78527 whole entry): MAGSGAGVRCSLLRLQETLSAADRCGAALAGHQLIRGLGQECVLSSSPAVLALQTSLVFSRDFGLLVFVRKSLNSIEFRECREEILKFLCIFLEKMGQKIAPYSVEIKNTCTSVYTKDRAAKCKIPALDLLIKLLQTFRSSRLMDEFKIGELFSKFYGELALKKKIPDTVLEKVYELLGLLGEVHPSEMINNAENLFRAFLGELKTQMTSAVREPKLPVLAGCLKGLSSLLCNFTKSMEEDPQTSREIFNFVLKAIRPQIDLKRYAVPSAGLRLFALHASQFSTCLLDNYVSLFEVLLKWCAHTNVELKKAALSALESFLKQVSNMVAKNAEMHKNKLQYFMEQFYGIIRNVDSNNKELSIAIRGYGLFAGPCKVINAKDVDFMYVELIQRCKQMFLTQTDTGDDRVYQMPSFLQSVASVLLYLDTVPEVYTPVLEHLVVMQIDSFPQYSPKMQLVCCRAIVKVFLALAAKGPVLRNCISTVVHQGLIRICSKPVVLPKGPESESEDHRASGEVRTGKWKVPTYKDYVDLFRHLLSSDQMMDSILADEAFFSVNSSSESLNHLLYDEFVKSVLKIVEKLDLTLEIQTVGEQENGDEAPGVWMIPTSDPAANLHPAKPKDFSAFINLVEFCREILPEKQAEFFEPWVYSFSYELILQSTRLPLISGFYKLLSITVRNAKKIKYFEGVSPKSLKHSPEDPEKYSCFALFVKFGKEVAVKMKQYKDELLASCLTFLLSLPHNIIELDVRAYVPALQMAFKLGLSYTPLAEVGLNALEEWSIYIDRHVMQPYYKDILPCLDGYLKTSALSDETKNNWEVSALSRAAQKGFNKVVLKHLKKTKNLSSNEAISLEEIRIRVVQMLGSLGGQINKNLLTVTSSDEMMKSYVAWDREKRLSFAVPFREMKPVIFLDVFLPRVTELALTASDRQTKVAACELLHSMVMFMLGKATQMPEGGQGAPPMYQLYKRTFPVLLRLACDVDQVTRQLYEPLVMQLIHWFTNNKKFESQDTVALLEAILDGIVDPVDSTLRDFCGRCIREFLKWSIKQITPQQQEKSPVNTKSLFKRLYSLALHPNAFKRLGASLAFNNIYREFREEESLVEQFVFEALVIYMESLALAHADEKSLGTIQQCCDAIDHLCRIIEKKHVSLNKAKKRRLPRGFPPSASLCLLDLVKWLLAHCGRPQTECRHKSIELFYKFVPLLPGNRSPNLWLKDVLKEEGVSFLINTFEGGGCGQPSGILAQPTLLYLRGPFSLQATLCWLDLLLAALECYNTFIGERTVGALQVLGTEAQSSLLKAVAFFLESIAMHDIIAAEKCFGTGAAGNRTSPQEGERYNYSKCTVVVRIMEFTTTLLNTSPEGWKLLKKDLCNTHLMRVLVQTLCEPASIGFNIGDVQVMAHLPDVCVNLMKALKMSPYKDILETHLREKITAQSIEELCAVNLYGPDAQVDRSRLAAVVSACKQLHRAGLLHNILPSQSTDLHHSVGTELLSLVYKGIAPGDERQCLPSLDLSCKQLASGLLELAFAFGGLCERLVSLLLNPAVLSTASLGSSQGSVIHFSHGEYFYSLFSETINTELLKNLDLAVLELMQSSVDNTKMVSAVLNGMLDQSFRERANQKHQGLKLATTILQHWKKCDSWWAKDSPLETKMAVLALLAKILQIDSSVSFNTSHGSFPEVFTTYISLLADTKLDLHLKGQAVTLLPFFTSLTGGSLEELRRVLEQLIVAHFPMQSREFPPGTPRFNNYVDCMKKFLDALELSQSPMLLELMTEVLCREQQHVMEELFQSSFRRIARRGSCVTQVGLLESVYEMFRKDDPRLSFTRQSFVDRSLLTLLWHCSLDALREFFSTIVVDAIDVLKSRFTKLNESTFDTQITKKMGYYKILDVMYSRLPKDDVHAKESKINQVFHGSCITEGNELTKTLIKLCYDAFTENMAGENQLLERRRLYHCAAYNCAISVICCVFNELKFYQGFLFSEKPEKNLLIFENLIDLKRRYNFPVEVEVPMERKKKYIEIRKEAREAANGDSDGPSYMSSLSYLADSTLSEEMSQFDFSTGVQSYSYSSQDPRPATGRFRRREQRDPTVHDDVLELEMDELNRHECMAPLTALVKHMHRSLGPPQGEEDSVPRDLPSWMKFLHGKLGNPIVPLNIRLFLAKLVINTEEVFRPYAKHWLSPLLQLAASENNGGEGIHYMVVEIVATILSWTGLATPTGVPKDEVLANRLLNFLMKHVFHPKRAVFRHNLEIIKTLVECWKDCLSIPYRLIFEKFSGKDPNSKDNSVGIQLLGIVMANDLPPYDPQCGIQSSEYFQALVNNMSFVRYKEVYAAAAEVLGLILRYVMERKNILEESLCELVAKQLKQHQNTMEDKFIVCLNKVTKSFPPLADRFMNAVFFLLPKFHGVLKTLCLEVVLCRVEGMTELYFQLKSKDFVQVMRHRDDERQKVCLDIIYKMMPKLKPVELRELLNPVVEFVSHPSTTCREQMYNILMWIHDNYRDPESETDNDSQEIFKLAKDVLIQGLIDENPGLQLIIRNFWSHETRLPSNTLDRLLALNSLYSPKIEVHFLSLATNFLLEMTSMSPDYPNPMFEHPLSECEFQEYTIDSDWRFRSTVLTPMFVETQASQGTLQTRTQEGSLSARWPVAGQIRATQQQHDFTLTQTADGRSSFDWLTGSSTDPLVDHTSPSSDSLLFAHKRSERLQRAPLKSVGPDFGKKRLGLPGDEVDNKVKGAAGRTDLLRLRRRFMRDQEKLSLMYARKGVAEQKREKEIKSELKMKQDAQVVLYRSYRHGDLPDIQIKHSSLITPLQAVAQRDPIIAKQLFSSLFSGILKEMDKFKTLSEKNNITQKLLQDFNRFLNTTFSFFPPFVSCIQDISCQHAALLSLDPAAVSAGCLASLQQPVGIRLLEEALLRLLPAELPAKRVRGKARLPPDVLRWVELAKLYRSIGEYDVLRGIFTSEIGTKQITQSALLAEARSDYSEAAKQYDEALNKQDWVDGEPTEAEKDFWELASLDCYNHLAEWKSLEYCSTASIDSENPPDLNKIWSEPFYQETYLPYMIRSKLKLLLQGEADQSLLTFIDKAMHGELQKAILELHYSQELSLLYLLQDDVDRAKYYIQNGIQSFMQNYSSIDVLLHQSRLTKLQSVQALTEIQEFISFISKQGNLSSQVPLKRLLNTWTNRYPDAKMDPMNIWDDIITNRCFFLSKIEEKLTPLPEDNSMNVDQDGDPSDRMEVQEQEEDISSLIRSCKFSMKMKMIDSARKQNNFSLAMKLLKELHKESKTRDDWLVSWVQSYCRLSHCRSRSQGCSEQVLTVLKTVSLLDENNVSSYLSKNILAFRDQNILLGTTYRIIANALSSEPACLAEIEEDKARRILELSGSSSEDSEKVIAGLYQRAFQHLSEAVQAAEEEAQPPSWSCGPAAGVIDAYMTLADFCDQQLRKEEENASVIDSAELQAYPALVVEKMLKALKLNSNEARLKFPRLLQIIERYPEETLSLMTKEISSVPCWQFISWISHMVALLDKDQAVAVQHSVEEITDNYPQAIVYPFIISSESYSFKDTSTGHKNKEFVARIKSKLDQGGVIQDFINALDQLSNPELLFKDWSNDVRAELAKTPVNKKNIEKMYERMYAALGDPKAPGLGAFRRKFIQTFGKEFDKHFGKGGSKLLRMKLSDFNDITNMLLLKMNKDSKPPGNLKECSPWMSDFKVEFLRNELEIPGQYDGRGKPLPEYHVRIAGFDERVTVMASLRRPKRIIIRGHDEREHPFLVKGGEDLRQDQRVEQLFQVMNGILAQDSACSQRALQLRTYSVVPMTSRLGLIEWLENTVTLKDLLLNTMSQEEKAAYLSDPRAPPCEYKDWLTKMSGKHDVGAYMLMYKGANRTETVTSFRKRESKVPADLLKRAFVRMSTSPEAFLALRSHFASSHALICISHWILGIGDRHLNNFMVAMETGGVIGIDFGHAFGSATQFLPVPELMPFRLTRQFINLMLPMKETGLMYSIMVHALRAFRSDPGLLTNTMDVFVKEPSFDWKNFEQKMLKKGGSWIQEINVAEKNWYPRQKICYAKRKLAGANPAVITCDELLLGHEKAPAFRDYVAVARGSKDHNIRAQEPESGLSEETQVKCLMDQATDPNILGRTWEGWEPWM

[3] = molecular target: T1, DNA-dependent protein kinase catalytic subunit; experiment: Competitive inhibition of DNA-PK
[4] = molecular target: T1, DNA-dependent protein kinase catalytic subunit; experiment: Inhibition of DNA-PK
[5] = molecular target: Serine-protein kinase ATM (Homo sapiens, UniProt Q13315); experiment: Irreversible inhibition of ATM
[6] = molecular target: Heat shock protein HSP 90-beta (Homo sapiens, UniProt P08238); experiment: Inhibition of Hsp90
Chain of Heat shock protein HSP 90-beta (P08238 whole entry): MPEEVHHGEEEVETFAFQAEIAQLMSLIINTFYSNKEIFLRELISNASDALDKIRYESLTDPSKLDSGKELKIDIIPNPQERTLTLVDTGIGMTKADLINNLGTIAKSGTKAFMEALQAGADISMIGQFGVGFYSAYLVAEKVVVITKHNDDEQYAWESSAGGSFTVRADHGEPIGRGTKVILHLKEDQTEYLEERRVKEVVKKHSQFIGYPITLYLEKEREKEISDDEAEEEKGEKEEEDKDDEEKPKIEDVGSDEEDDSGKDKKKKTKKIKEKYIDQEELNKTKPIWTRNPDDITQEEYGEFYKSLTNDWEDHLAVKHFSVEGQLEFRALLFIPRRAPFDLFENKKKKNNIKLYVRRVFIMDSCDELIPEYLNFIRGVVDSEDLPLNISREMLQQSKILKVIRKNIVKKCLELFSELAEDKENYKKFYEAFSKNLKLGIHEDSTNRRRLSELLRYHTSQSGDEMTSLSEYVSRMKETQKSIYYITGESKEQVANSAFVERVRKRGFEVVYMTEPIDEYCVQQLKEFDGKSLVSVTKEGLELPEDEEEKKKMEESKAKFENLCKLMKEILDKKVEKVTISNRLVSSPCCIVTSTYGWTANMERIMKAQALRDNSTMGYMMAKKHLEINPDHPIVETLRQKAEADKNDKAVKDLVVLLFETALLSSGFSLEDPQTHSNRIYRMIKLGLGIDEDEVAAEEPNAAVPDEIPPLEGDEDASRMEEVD

[7] = Inhibition of PI3K
[8] = molecular target: Serine/threonine-protein kinase ATR (Homo sapiens, UniProt Q13535); experiment: Inhibition of flag-tagged ATR expressed in HEK293T cells using PHAS-1 as substrate after 20 mins by autoradiography; set-up: species or system HEK-293T
[9] = molecular target: T1, DNA-dependent protein kinase catalytic subunit; experiment: Inhibition of DNA-PK in human U1810 cells after 30 mins; format: cell-based

## CC(=O)c1ccc(N2CCOCC2)cc1O
[1]
  pIC50: 6.92

## COc1cc(C=O)c([N+](=O)[O-])cc1OC
[2]
  pIC50: 4.82

## Nc1ncc(-c2ccccc2)nc1C(=O)Nc1ccccc1
[3]
  pIC50: 6.21

## CS(=O)(=O)c1ccc(-c2cnc(N)c(C(=O)Nc3ccccc3)n2)cc1
[4]
  pIC50: 7.59

## CC(CN(C)C)S(=O)(=O)c1ccc(-c2cnc(N)c(C(=O)Nc3ccccc3)n2)cc1 (stereo not drawn)
[4]
  pKi: 8.22

## CCc1[nH]c(/C=C2\C(=O)Nc3ccc(S(=O)(=O)Nc4ccccc4)cc32)c(CC)c1CCC(=O)O
[3]
  pIC50: 6.89

## COc1cc(Br)c(C=O)cc1OC
[2]
  pIC50: 4.52

## O=c1cc(-c2ccccc2)oc2c(-c3ccccc3)c(N3CCOCC3)cc(O)c12
[1]
  pIC50: 7.47

## Cc1ccc2c(sc3ccccc32)c1-c1cccc2c(=O)cc(N3CCOCC3)oc12
[4]
  pIC50: 5.92 and 5.60

## C=C1C(=O)OC[C@@H]1C(=O)N1Cc2cc3ccccc3nc2C1
[5]
  pIC50: 6.22

## C=C1C(=O)OCC1(C(=O)OCC)C(=O)OCC
[5]
  pIC50: 6.60

## N#Cc1cc(-c2ccncc2)c(/C=N/N)nc1O
[3]
  pIC50: 5.10

## CO[C@@H]1/C=C/C=C(\C)C(=O)NC2=CC(=O)C(NCCCCCCOc3ccc4c(=O)cc(N5CCOCC5)oc4c3)=C(C[C@@H](C)C[C@@H](OC)[C@@H](O)[C@H](C)/C=C(\C)[C@H]1OC(N)=O)C2=O (stereo in doubt)
[6]
  pEC50: 5.40
[7]
  pIC50: < 3.30
[4]
  pIC50: 5.21

## COc1cc2c(c(OC)c1OC)-c1c(cc3c(c1OC)OCO3)CC(C)C(C)C2 (stereo not drawn) [SCHISANDRIN B]
[8]
  pIC50: 5.14

## CN1CCN(CCCN2c3ccccc3Sc3ccc(C(F)(F)F)cc32)CC1 [TRIFLUOPERAZINE]
[9]
  pIC50: 4.00

## COc1cc(C=O)ccc1O [VANILLIN]
[2]
  pIC50: 2.82
